“And” between values parts separate entries of the source, which are not always exact repeats. Equal entries are not always repeated. Toxic doses and inconclusive results are not listed.
Tested on: P388 leukemia ip, CD2F1 mice, survival T/C
Assay: NCI In Vivo Anticancer Drug Screen. Data for tumor model P388 Leukemia (intraperitoneal) in CD2F1 (CDF1) mice
Settings: endpoint: median survival time, higher = longer survival
How it was run: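 Mice carrying the transplanted tumor received test compound or vehicle. Survival was recorded in each group, and the value is the treated-group measurement divided by that of the vehicle-treated control group.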

[1] = dose: 60.0 mg/kg/injection, schedule: Q01DX005 (ip), vehicle: saline with Tween-80
[2] = dose: 120.0 mg/kg/injection, schedule: Q01DX005 (ip), vehicle: saline with Tween-80
[3] = dose: 240.0 mg/kg/injection, schedule: Q01DX005 (ip), vehicle: saline with Tween-80
[4] = dose: 25.0 mg/kg/injection, schedule: Q01DX009 (ip), vehicle: saline with Tween-80
[5] = dose: 50.0 mg/kg/injection, schedule: Q01DX009 (ip), vehicle: saline with Tween-80
[6] = dose: 50.0 mg/kg/injection, schedule: Q01DX009 (ip), vehicle: saline
[7] = dose: 100.0 mg/kg/injection, schedule: Q01DX009 (ip), vehicle: saline with Tween-80
[8] = dose: 100.0 mg/kg/injection, schedule: Q01DX009 (ip), vehicle: saline
[9] = dose: 200.0 mg/kg/injection, schedule: Q01DX009 (ip), vehicle: saline with Tween-80
[10] = dose: 100.0 mg/kg/injection, schedule: Q01DX001 (ip), vehicle: Klucel (hydroxypropylcellulose) (HPC)
[11] = dose: 200.0 mg/kg/injection, schedule: Q01DX001 (ip), vehicle: Klucel (hydroxypropylcellulose) (HPC)
[12] = dose: 400.0 mg/kg/injection, schedule: Q01DX001 (ip), vehicle: Klucel (hydroxypropylcellulose) (HPC)

For `Cc1ccc(S(=O)(=O)N/N=C/c2cc([N+](=O)[O-])cc(I)c2O)cc1`, the T/C (dose: 12.5 mg/kg/injection, schedule: Q01DX005 (ip), vehicle: distilled water + Tween-80) was 102 % of control, the T/C (dose: 25.0 mg/kg/injection, schedule: Q01DX005 (ip), vehicle: distilled water + Tween-80) was 109 % of control and the T/C (dose: 50.0 mg/kg/injection, schedule: Q01DX005 (ip), vehicle: distilled water + Tween-80) was 98 % of control and 112 % of control. For the same compound, the T/C (dose: 100.0 mg/kg/injection, schedule: Q01DX005 (ip), vehicle: distilled water + Tween-80) was 98 % of control and 102 % of control, the T/C (dose: 200.0 mg/kg/injection, schedule: Q01DX005 (ip), vehicle: distilled water + Tween-80) was 122 % of control and 95 % of control and the T/C (dose: 400.0 mg/kg/injection, schedule: Q01DX005 (ip), vehicle: distilled water + Tween-80) was 93 % of control.
`C=C1CN(CCc2ccccc2)C(=S)S1` was tested, and the T/C [1] was 101 % of control, the T/C [2] was 102 % of control and the T/C [3] was 102 % of control.
With `CNC(=S)N/N=C/c1ccccc1` the T/C [4] was 110 % of control, the T/C [5] was 112 % of control and the T/C [6] was 100 % of control. The T/C [7] was 117 % of control, the T/C [8] was 105 % of control and the T/C [9] was 100 % of control. For the same compound, the T/C (dose: 200.0 mg/kg/injection, schedule: Q01DX009 (ip), vehicle: saline) was 100 % of control.
`C/C1=C\C(=O)OCC23CCC4(C)OC4C2OC2CC(OC(=O)/C=C/C=C/C(C(C)O)OCC1O)C3(C)C21CO1` (stereo unspecified) was tested, and the T/C (dose: 1.25 mg/kg/injection, schedule: Q01DX005 (ip), vehicle: saline + alcohol) was 121 % of control and 123 % of control, the T/C (dose: 5.0 mg/kg/injection, schedule: Q01DX005 (ip), vehicle: saline + alcohol) was 124 % of control and the T/C (dose: 10.0 mg/kg/injection, schedule: Q01DX005 (ip), vehicle: saline + alcohol) was 150 % of control. For the same compound, the T/C (dose: 20.0 mg/kg/injection, schedule: Q01DX005 (ip), vehicle: saline + alcohol) was 159 % of control.
In the case of `CC(C)=CCc1cc2c(cc1O)OC[C@H]1c3cc4c(cc3O[C@@H]21)OCO4`, the T/C [10] is reported as 91 % of control, the T/C [11] is reported as 96 % of control and the T/C [12] is reported as 91 % of control.
For `Nc1nnc2nc(C(C(=O)c3ccc(O)cc3O)c3nc4nnc(N)n4[nH]c3=O)c(=O)[nH]n12`, the T/C [1] was 102 % of control, the T/C [2] was 98 % of control and the T/C [3] was 104 % of control.
With `CCC1(c2ccnc3ccccc23)C(=O)OC(C)(C)OC1=O` the T/C (dose: 50.0 mg/kg/injection, schedule: Q01DX009 (ip), vehicle: distilled water + alcohol) was 99 % of control, the T/C (dose: 100.0 mg/kg/injection, schedule: Q01DX009 (ip), vehicle: distilled water + alcohol) was 98 % of control and the T/C (dose: 200.0 mg/kg/injection, schedule: Q01DX009 (ip), vehicle: distilled water + alcohol) was 87 % of control.
For `NS(=O)(=O)c1ccc(NC(=O)CCl)cc1`, the T/C (dose: 12.5 mg/kg/injection, schedule: Q01DX009 (ip), vehicle: Klucel (hydroxypropylcellulose) (HPC)) was 110 % of control, the T/C (dose: 25.0 mg/kg/injection, schedule: Q01DX009 (ip), vehicle: Klucel (hydroxypropylcellulose) (HPC)) was 108 % of control and 120 % of control and the T/C (dose: 50.0 mg/kg/injection, schedule: Q01DX009 (ip), vehicle: Klucel (hydroxypropylcellulose) (HPC)) was 110 % of control and 121 % of control. The T/C (dose: 100.0 mg/kg/injection, schedule: Q01DX009 (ip), vehicle: Klucel (hydroxypropylcellulose) (HPC)) was 121 % of control.
In the case of `CCCCCCCCn1c(Cl)c(C(=O)O)c2ccccc21`, the T/C [10] is reported as 95 % of control, the T/C [11] is reported as 86 % of control and the T/C [12] is reported as 86 % of control.
In the case of `CCOC(=O)\C(C#N)=C/C=C(C)/C(C)=C/Nc1ccc([N+](=O)[O-])cc1[N+](=O)[O-]`, the T/C (dose: 50.0 mg/kg/injection, schedule: Q01DX005 (ip), vehicle: Klucel (hydroxypropylcellulose) (HPC)) is reported as 101 % of control, the T/C (dose: 100.0 mg/kg/injection, schedule: Q01DX005 (ip), vehicle: Klucel (hydroxypropylcellulose) (HPC)) is reported as 91 % of control and the T/C (dose: 200.0 mg/kg/injection, schedule: Q01DX005 (ip), vehicle: Klucel (hydroxypropylcellulose) (HPC)) is reported as 91 % of control.
`CN1c2ccc(Br)c[c]2[Sn]([CH3])([CH3])[c]2cc(Br)ccc21` was tested, and the T/C [1] was 99 % of control, the T/C [2] was 100 % of control and the T/C [3] was 104 % of control.
`CCCCCCCCCCCCCCC(Br)C(=O)O` (stereo unspecified) was tested, and the T/C [6] was 101 % of control and the T/C [8] was 103 % of control.
In the case of `CCc1nc(-c2ccccc2)nc2c1nc(-c1ccccc1)n2Nc1ccccc1`, the T/C (dose: 50.0 mg/kg/injection, schedule: Q01DX005 (ip), vehicle: saline with Tween-80) is reported as 90 % of control, the T/C (dose: 100.0 mg/kg/injection, schedule: Q01DX005 (ip), vehicle: saline with Tween-80) is reported as 96 % of control and the T/C (dose: 200.0 mg/kg/injection, schedule: Q01DX005 (ip), vehicle: saline with Tween-80) is reported as 91 % of control.
`c1cc(OCC2CO2)ccc1OCC1CO1` (stereo unspecified) was tested, and the T/C (dose: 12.5 mg/kg/injection, schedule: Q01DX009 (ip), vehicle: saline with Tween-80) was 95 % of control, the T/C [4] was 96 % of control and the T/C [5] was 113 % of control. For the same compound, the T/C [7] was 108 % of control and 111 % of control, the T/C (dose: 100.0 mg/kg/injection, schedule: Q04DX003 (ip), vehicle: saline sonified) was 100 % of control and the T/C [9] was 108 % of control. For the same compound, the T/C (dose: 200.0 mg/kg/injection, schedule: Q04DX003 (ip), vehicle: saline sonified) was 104 % of control, the T/C (dose: 264.0 mg/kg/injection, schedule: Q04DX003 (ip), vehicle: saline with Tween-80) was 118 % of control and the T/C (dose: 400.0 mg/kg/injection, schedule: Q01DX009 (ip), vehicle: saline with Tween-80) was 112 % of control. The T/C (dose: 600.0 mg/kg/injection, schedule: Q04DX003 (ip), vehicle: saline with Tween-80) was 113 % of control.
With `CCC(=O)O[C@H]1CC[C@H]2[C@@H]3C[C@H](F)C4=CC(=O)CC[C@]4(C)[C@H]3CC[C@]12C` the T/C [5] was 100 % of control, the T/C [7] was 100 % of control and the T/C [9] was 100 % of control.
For `C=C(C)C(=O)OC1C/C(CO)=C\C(OC(C)=O)C/C(C)=C/C2OC(=O)C(=C)C21` (stereo unspecified), the T/C (dose: 3.75 mg/kg/injection, schedule: Q01DX009 (ip), vehicle: saline + alcohol) was 113 % of control, the T/C (dose: 7.5 mg/kg/injection, schedule: Q01DX009 (ip), vehicle: saline + alcohol) was 115 % of control and the T/C (dose: 15.0 mg/kg/injection, schedule: Q01DX009 (ip), vehicle: saline + alcohol) was 120 % of control.
In the case of `COC(=O)c1nc(NC#N)[nH]c(=O)c1CCCCCc1cnc(NC#N)nc1`, the T/C [1] is reported as 100 % of control, the T/C [2] is reported as 100 % of control and the T/C [3] is reported as 97 % of control.
With `CCC1C(=O)CC(C(=O)O)C1C(=O)O` (stereo unspecified) the T/C (dose: 30.0 mg/kg/injection, schedule: Q01DX005 (ip), vehicle: saline) was 98 % of control, the T/C (dose: 60.0 mg/kg/injection, schedule: Q01DX005 (ip), vehicle: saline) was 98 % of control and 96 % of control and the T/C (dose: 120.0 mg/kg/injection, schedule: Q01DX005 (ip), vehicle: saline) was 95 % of control. The T/C (dose: 240.0 mg/kg/injection, schedule: Q01DX005 (ip), vehicle: saline) was 86 % of control.
`CC1(C)CC(O)C2(CO)C(C1)C1=CCC3C4(C)CCC(O)C(C)(C)C4CCC3(C)C1(C)C(O)C2O` (stereo unspecified) was tested, and the T/C (dose: 5.25 mg/kg/injection, schedule: Q01DX005 (ip), vehicle: Klucel (hydroxypropylcellulose) (HPC)) was 100 % of control, the T/C (dose: 10.5 mg/kg/injection, schedule: Q01DX005 (ip), vehicle: Klucel (hydroxypropylcellulose) (HPC)) was 103 % of control and the T/C (dose: 21.0 mg/kg/injection, schedule: Q01DX005 (ip), vehicle: Klucel (hydroxypropylcellulose) (HPC)) was 94 % of control. For the same compound, the T/C (dose: 42.0 mg/kg/injection, schedule: Q01DX005 (ip), vehicle: Klucel (hydroxypropylcellulose) (HPC)) was 99 % of control.
With `COc1ccc(NC(=O)/N=C2\CN(C(=O)c3c(F)cccc3F)C(=O)N2c2ccc(OC)cc2)cc1` the T/C [1] was 87 % of control, the T/C [2] was 89 % of control and the T/C [3] was 103 % of control.
For `CSC(=S)/C(=C/Nc1ncccn1)c1ccccc1`, the T/C (dose: 30.0 mg/kg/injection, schedule: Q01DX005 (ip), vehicle: Klucel (hydroxypropylcellulose) (HPC)) was 87 % of control and the T/C (dose: 120.0 mg/kg/injection, schedule: Q01DX005 (ip), vehicle: Klucel (hydroxypropylcellulose) (HPC)) was 89 % of control.
In the case of `O=C(Nc1ccccc1C(=O)Nc1ccccc1C(=O)O)c1cccnc1`, the T/C (dose: 100.0 mg/kg/injection, schedule: Q04DX002 (ip), vehicle: saline with Tween-80) is reported as 109 % of control and the T/C (dose: 200.0 mg/kg/injection, schedule: Q04DX002 (ip), vehicle: saline with Tween-80) is reported as 100 % of control.
For `CCN(CC)CCN1C(=O)CCC1=O`, the T/C (dose: 50.0 mg/kg/injection, schedule: Q01DX005 (ip), vehicle: saline) was 100 % of control, the T/C (dose: 100.0 mg/kg/injection, schedule: Q01DX005 (ip), vehicle: saline) was 109 % of control and the T/C (dose: 200.0 mg/kg/injection, schedule: Q01DX005 (ip), vehicle: saline) was 104 % of control.
In the case of `O=C(O)c1ccc(N2C(=O)C3C4CCC(O4)C3C2=O)cc1` (stereo unspecified), the T/C (dose: 6.25 mg/kg/injection, schedule: Q01DX005 (ip), vehicle: saline with Tween-80) is reported as 101 % of control and the T/C (dose: 12.5 mg/kg/injection, schedule: Q01DX005 (ip), vehicle: saline with Tween-80) is reported as 101 % of control.

From PubChem BioAssay AID330 (DTP/NCI, 2004)
